Reference: the supplement of paper PMC10307832

Experiments:
Assay in all cases: relative viability (nuclei count vs DMSO), 5 days (fraction); higher = more cells survive
[1] = tested on: NCI-H1793
In short: (§1)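 Relative viability equals treated-well nuclei counts divided by vehicle-well nuclei counts. Counts came from 4× images of lung cancer cell lines grown in 1536-well plates for 5 days after pin-tool dosing on the day after seeding. Dosing used one drug alone or a fixed anchor-drug dose plus five library-drug doses (not always all listed) in √10 steps, and values are medians of duplicate plates.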

[2] = tested on: NCI-H1355
In short: as §1

[3] = tested on: NCI-H2085
In short: as §1

[4] = tested on: BEN
In short: as §1

[5] = tested on: NCI-H838
In short: as §1

[6] = tested on: NCI-H1651
In short: as §1

[7] = tested on: COR-L23
In short: as §1

[8] = tested on: NCI-H441
In short: as §1

[9] = tested on: LU99A
In short: as §1

[10] = tested on: NCI-H1650
In short: as §1

[11] = tested on: NCI-H2023
In short: as §1

[12] = tested on: NCI-H460
In short: as §1

[13] = tested on: NCI-H2342
In short: as §1

[14] = tested on: NCI-H1437
In short: as §1

[15] = tested on: NCI-H358
In short: as §1

[16] = tested on: NCI-H1734
In short: as §1

[17] = tested on: HCC-366
In short: as §1

[18] = tested on: CAL-12T
In short: as §1

[19] = tested on: LOU-NH91
In short: as §1

[20] = tested on: NCI-H1975
In short: as §1

[21] = tested on: SK-LU-1
In short: as §1

`O=c1cc(-c2cccc3c2Sc2ccccc2S3)oc(N2CCOCC2)c1` + O=C(CCCCCCC(=O)Nc1ccccc1)NO [Vorinostat] (partner 1 µM) gave a relative viability ([1]; first compound 0.08 µM) of 0.653, a relative viability ([1]; first compound 0.253 µM) of 0.846 and a relative viability ([1]; first compound 0.8 µM) of 0.541. For the same molecule, the relative viability ([1]; first compound 2.53 µM) was 0.627, the relative viability ([1]; first compound 8 µM) was 0.804 and the relative viability ([2]; first compound 0.08 µM) was 0.628. For the same molecule, the relative viability ([2]; first compound 0.253 µM) was 0.709, the relative viability ([2]; first compound 0.8 µM) was 0.526 and the relative viability ([2]; first compound 2.53 µM) was 0.654. The relative viability ([2]; first compound 8 µM) was 0.584, the relative viability ([3]; first compound 0.08 µM) was 0.739 and the relative viability ([3]; first compound 0.253 µM) was 0.825. The relative viability ([3]; first compound 0.8 µM) was 0.687, the relative viability ([3]; first compound 2.53 µM) was 0.759 and the relative viability ([3]; first compound 8 µM) was 0.612. The relative viability ([4]; first compound 0.08 µM) was 0.521, the relative viability ([4]; first compound 0.253 µM) was 0.645 and the relative viability ([4]; first compound 0.8 µM) was 0.594. It also gave a relative viability ([4]; first compound 2.53 µM) of 0.59, a relative viability ([4]; first compound 8 µM) of 0.629 and a relative viability ([5]; first compound 0.08 µM) of 0.746. The relative viability ([5]; first compound 0.253 µM) was 0.739, the relative viability ([5]; first compound 0.8 µM) was 0.831 and the relative viability ([5]; first compound 2.53 µM) was 0.636. For the same molecule, the relative viability ([5]; first compound 8 µM) was 0.535, the relative viability ([6]; first compound 0.08 µM) was 0.585 and the relative viability ([6]; first compound 0.253 µM) was 0.638. For the same molecule, the relative viability ([6]; first compound 0.8 µM) was 0.571, the relative viability ([6]; first compound 2.53 µM) was 0.519 and the relative viability ([6]; first compound 8 µM) was 0.578. It also gave a relative viability ([7]; first compound 0.08 µM) of 0.472, a relative viability ([7]; first compound 0.253 µM) of 0.457 and a relative viability ([7]; first compound 0.8 µM) of 0.397. The relative viability ([7]; first compound 2.53 µM) was 0.442, the relative viability ([7]; first compound 8 µM) was 0.446 and the relative viability ([8]; first compound 0.08 µM) was 0.921. It also gave a relative viability ([8]; first compound 0.253 µM) of 1.01, a relative viability ([8]; first compound 0.8 µM) of 1.14 and a relative viability ([8]; first compound 2.53 µM) of 0.838. It also gave a relative viability ([8]; first compound 8 µM) of 0.935, a relative viability ([9]; first compound 0.08 µM) of 0.429 and a relative viability ([9]; first compound 0.253 µM) of 0.499. The relative viability ([9]; first compound 0.8 µM) was 0.639, the relative viability ([9]; first compound 2.53 µM) was 0.514 and the relative viability ([9]; first compound 8 µM) was 0.669. It also gave a relative viability ([10]; first compound 0.08 µM) of 0.535, a relative viability ([10]; first compound 0.253 µM) of 0.643 and a relative viability ([10]; first compound 0.8 µM) of 0.602. It also gave a relative viability ([10]; first compound 2.53 µM) of 0.502, a relative viability ([10]; first compound 8 µM) of 0.556 and a relative viability ([11]; first compound 0.08 µM) of 0.707. The relative viability ([11]; first compound 0.253 µM) was 0.752, the relative viability ([11]; first compound 0.8 µM) was 0.718 and the relative viability ([11]; first compound 2.53 µM) was 0.583. It also gave a relative viability ([11]; first compound 8 µM) of 0.451, a relative viability ([12]; first compound 0.08 µM) of 0.892 and a relative viability ([12]; first compound 0.253 µM) of 1.49. The relative viability ([12]; first compound 0.8 µM) was 0.772, the relative viability ([12]; first compound 2.53 µM) was 0.692 and the relative viability ([12]; first compound 8 µM) was 1.04. It also gave a relative viability ([13]; first compound 0.08 µM) of 0.752, a relative viability ([13]; first compound 0.253 µM) of 0.831 and a relative viability ([13]; first compound 0.8 µM) of 0.8. The relative viability ([13]; first compound 2.53 µM) was 0.691, the relative viability ([13]; first compound 8 µM) was 0.699 and the relative viability ([14]; first compound 0.08 µM) was 0.857. For the same molecule, the relative viability ([14]; first compound 0.253 µM) was 0.9, the relative viability ([14]; first compound 0.8 µM) was 0.847 and the relative viability ([14]; first compound 2.53 µM) was 0.761. The relative viability ([14]; first compound 8 µM) was 0.857, the relative viability ([15]; first compound 0.08 µM) was 0.725 and the relative viability ([15]; first compound 0.253 µM) was 0.651. For the same molecule, the relative viability ([15]; first compound 0.8 µM) was 0.705, the relative viability ([15]; first compound 2.53 µM) was 0.71 and the relative viability ([15]; first compound 8 µM) was 0.632. For the same molecule, the relative viability ([16]; first compound 0.08 µM) was 0.771, the relative viability ([16]; first compound 0.253 µM) was 0.94 and the relative viability ([16]; first compound 0.8 µM) was 0.824. For the same molecule, the relative viability ([16]; first compound 8 µM) was 0.993, the relative viability ([17]; first compound 0.08 µM) was 0.347 and the relative viability ([17]; first compound 0.253 µM) was 0.387. The relative viability ([17]; first compound 0.8 µM) was 0.297, the relative viability ([17]; first compound 2.53 µM) was 0.426 and the relative viability ([17]; first compound 8 µM) was 0.42. The relative viability ([18]; first compound 0.08 µM) was 0.677, the relative viability ([18]; first compound 0.253 µM) was 0.782 and the relative viability ([18]; first compound 0.8 µM) was 0.765. It also gave a relative viability ([18]; first compound 2.53 µM) of 0.799, a relative viability ([18]; first compound 8 µM) of 0.699 and a relative viability ([19]; first compound 0.08 µM) of 0.91. The relative viability ([19]; first compound 0.253 µM) was 0.943, the relative viability ([19]; first compound 0.8 µM) was 0.854 and the relative viability ([19]; first compound 2.53 µM) was 0.745. It also gave a relative viability ([19]; first compound 8 µM) of 0.898, a relative viability ([20]; first compound 0.08 µM) of 0.687 and a relative viability ([20]; first compound 0.253 µM) of 0.827. The relative viability ([20]; first compound 0.8 µM) was 0.707, the relative viability ([20]; first compound 2.53 µM) was 0.671 and the relative viability ([20]; first compound 8 µM) was 0.749. The relative viability ([21]; first compound 0.08 µM) was 0.8, the relative viability ([21]; first compound 0.253 µM) was 0.894 and the relative viability ([21]; first compound 0.8 µM) was 0.877. It also gave a relative viability ([21]; first compound 2.53 µM) of 0.709 and a relative viability ([21]; first compound 8 µM) of 0.705.
